Data published in ChEMBL document CHEMBL1255314, “Outbreak of Acinetobacter baumannii with chromosomally encoded VIM-1 undetectable by imipenem-EDTA synergy tests” (2008).
In brackets after ≈: the same amount, converted by molar mass.

How the values were obtained:
Acinetobacter baumannii = assay: Antimicrobial activity against Acinetobacter baumannii isolates by agar dilution method; type: functional
[1] = target: Metallo-beta-lactamase (Acinetobacter baumannii) (UniProt Q4F6N3); assay: Activity of Acinetobacter baumannii isolate TZ42/166 VIM-1 assessed as compound hydrolysis in presence of EDTA
[2] = target: Metallo-beta-lactamase (Acinetobacter baumannii) (UniProt Q4F6N3); assay: Activity of Acinetobacter baumannii isolate TZ42/166 VIM-1 assessed as compound hydrolysis
[3] = target: Metallo-beta-lactamase (Acinetobacter baumannii) (UniProt Q4F6N3); assay: Activity of Acinetobacter baumannii VIM-1 assessed as compound hydrolysis
[4] = target: BlaVIM-1 (Escherichia coli) (UniProt Q8GDC1); assay: Inhibition of VIM-1 activity in Escherichia coli extracts at 100 uM

## CO/N=C(\C(=O)N[C@@H]1C(=O)N2C(C(=O)O)=C(COC(C)=O)CS[C@H]12)c1csc(N)n1 [CEFOTAXIME]
Acinetobacter baumannii
  MIC: > 64 µg/mL

## CC(C)(O/N=C(\C(=O)N[C@@H]1C(=O)N2C(C(=O)[O-])=C(C[n+]3ccccc3)CS[C@H]12)c1csc(N)n1)C(=O)O [CEFTAZIDIME]
Acinetobacter baumannii
  MIC: > 64 µg/mL

## C[C@@H](O)[C@H]1C(=O)N2C(C(=O)O)=C(S[C@@H]3CN[C@H](C(=O)N(C)C)C3)[C@H](C)[C@H]12 [MEROPENEM]
Acinetobacter baumannii
  MIC: 16 µg/mL (≈ 41.7 µM)

## C[C@H]1[C@H](NC(=O)/C(=N\OC(C)(C)C(=O)O)c2csc(N)n2)C(=O)N1S(=O)(=O)O [AZTREONAM]
Acinetobacter baumannii
  MIC: > 64 µg/mL

## C[C@@H](O)[C@H]1C(=O)N2C(C(=O)O)=C(SCCNC=N)C[C@H]12 [IMIPENEM ANHYDROUS]
[1]
  Activity: 1.5 U
Acinetobacter baumannii
  MIC: 16 µg/mL (≈ 53.4 µM)
[2]
  Activity: 90 U
[3]
  Activity: 28 U
[4]
  inhibition: > 95%

## CO/N=C(\C(=O)N[C@@H]1C(=O)N2C(C(=O)[O-])=C(C[N+]3(C)CCCC3)CS[C@H]12)c1csc(N)n1 [CEFEPIME]
Acinetobacter baumannii
  MIC: > 64 µg/mL
